Where a name gives a salt, the structure may show the parent alone.

The target in this assay is T1, rat GPR120 (Rattus norvegicus, UniProt Q2AC31).
T1 construct: expressed in transfected cells; host or cells: HEK293
T1 sequence (Q2AC31 1-361): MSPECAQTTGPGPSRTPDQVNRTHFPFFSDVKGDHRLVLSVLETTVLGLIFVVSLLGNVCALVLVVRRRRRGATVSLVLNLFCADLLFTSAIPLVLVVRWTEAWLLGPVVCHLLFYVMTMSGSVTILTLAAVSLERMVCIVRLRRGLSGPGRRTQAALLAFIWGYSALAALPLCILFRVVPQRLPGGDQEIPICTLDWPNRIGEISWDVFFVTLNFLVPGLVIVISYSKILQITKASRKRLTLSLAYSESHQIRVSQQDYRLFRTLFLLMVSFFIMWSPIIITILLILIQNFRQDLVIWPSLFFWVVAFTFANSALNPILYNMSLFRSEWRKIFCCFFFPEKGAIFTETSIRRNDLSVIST
As to the kind of experiment: Rat GPR120 IP1 assay (inositol phosphate turnover). It is filed as cell-based. The settings on record: IP1 accumulation in HEK293 cells stably expressing rat GPR120. From the text:
The binding of small molecule agonists to the G-protein-coupled receptor GPR120 activates phospholipase C, and leads to the generation of inositol 1,4,5-trisphosphate (InsP3 or IP3). IP3 is subsequently de-phosphorylated to IP1, which accumulates in cells and is stable in the presence of lithium chloride.
In the present method, agonist-induced activation of the human and rat GPR120 receptor was monitored by measuring the accumulation of IP1 in CHO-K1 cells that were stably expressing the short form of human GPR120 (Accession #NM_001195755) or HEK293 cells stably expressing rat GPR120 (Accession #NM_001047088). Following agonist addition, GPR120 activation and subsequent accumulation of IP1 was measured using a homogeneous Time Resolved Fluorescence-based ELISA commercially available from CisBio (IP-one ELISA Kit). The IP-One ELISA was a competitive immunoassay which uses IP1 labeled with […] and a terbium cryptate-labeled anti-IP1 monoclonal antibody. […] The signal loss was then back calculated to IP1 concentration using an IP1 standard curve. Determination of IP1 concentration was a direct measure of GPR120 activation and was used to determine compound potency (EC50).
Human GPR120 stable cell-lines were generated in CHO cells. The expression plasmids were transfected using lipofectamine (Life Technologies) following manufacturer's instructions. Stable cell-lines were generated following drug selection and single cell cloning. Rat GPR120 stable cell-lines were generated in HEK cells using the Jump-In™ cell engineering platform (Life Technologies) following manufacturer's instructions. Stable cell-lines were generated following drug selection and single cell cloning.
The assay was performed in 384-well format. CHO cells stably expressing human GPR120 were plated at 20,000 cells per well in growth medium (DMEM/F12, 10% fetal calf serum). HEK293 cells stably expressing rat GPR120 were plated at […] per well in growth medium (DMEM, 10% fetal calf serum). Cell plates were then incubated 16 hours at 37 degrees in a 5% CO2 incubator. Measurement of Inositol Phosphate Turnover (IP1) was performed using the CisBio IP-One kit (Part number 62IPAPEB). After the 16 hour incubation, the growth media was removed by centrifugation using the BlueWasher (AusWasher GUI Ver. v1.0.1.8) Protocol #21-“Light Dry” and 10 μl of stimulation buffer (prepared as described in the kit) was added to each well. In a separate plate, compounds were diluted in DMSO (200-fold over the final concentration in the assay well) and 50 nl was acoustically transferred to the appropriate well in the assay cell plate. The plates were then incubated for 60 minutes at 37 degrees in a 5% CO2 incubator. 10 μl of detection buffer (also prepared as described in the IP-One kit) was added to each well and the plates were incubated at room temperature for 60 minutes in the dark. The plates were then read in a Perkin ElmerEnVision or equivalent reader able to measure FRET. Fluorescent ratio of emission at 665 and 620 nm was then converted to the IP1 concentration by back calculating from an IP1 standard curve prepared at the time of the assay. The data was normalized to % activity using a reference compound, and the EC50 values were determined using a standard 4-parameter fit.

With `Oc1cc(-c2ccc(O[C@H]3C[C@H](c4ccc(Cl)cc4)C3)cn2)on1` [Example 110, 5-{[trans-3-(4-chlorophenyl)cyclobutyl]oxy}-2-(3-hydroxyisoxazol-5-yl)pyridinium trifluoroacetate], the EC50 (commonly the concentration at which the effect is half-maximal) stood at 1.1 nM. Compound `Oc1cc(-c2ccc(O[C@H]3C[C@@H](c4ccc(Cl)cc4)C3)cn2)on1` [Example 111, 5-{[cis-3-(4-chlorophenyl)cyclobutyl]oxy}-2-(3-hydroxyisoxazol-5-yl)pyridinium trifluoroacetate] registered a half-maximal effective concentration (EC50) of 0.8 nM. `Oc1cc(-c2cnc(O[C@H]3C[C@H](c4ccc(Cl)cc4)C3)nc2)on1` [Example 115, 5-(2-{[trans-3-(4-chlorophenyl)cyclobutyl]oxy}pyrimidin-5-yl)isoxazol-3-ol] returned an EC50 of 5.8 nM.

(Values after patent publication US10864211B2, “Hydroxy isoxazole compounds useful as GPR120 agonists” (Merck Sharp & Dohme Corp., priority 2016, dated 2020).)
